Marks after values point to notes of the source that are not given here.
Experiments:
[1] = system: Patients with Type 2 Diabetes Insufficiently Controlled with Insulin Glargine with or without Metformin; experiment: Fasting plasma glucose, 26-week study; assay type: in vivo, human
Source text: (§1) FIG. 6—Graphical study design. ^1 Insulin glargine should be injected subcutaneously once daily at dinner or breakfast time (according to patient's/investigators' preference). […] Meal used for insulin glulisine dosing should remain the same throughout the 26-week treatment period. ^4 Injection of insulin glulisine prior to breakfast, lunch and dinner.
(§2) Co-primary endpoints at 26 weeks were (1) non-inferiority (95% CI upper bound <0.4%) in HbA1c reduction with LIXI vs GLU-1 and (2) for LIXI vs GLU-3, either non-inferiority in HbA1c reduction (2a) OR superiority (one-sided α≤0.025) in body weight change (2b). FPG, PPG, IG dose, composite outcomes, AEs, and hypoglycemia were assessed.

[2] = system: Patients with Type 2 Diabetes Insufficiently Controlled with Insulin Glargine with or without Metformin; parameters: species or system human; settings: in vivo
Source text: Clinical symptoms that are considered to result from a hypoglycemic episode are, e.g., increased sweating, nervousness, asthenia/weakness, tremor, dizziness, increased appetite, palpitations, headache, sleep disorder, confusion, seizures, unconsciousness, coma.
as §2

[3] = system: Patients with Type 2 Diabetes Insufficiently Controlled with Insulin Glargine with or without Metformin; experiment: Insulin dose (insulin glargine, insulin glulisine), 26-week study; assay type: in vivo, human
Source text: as §1, §2

[4] = system: Patients with Type 2 Diabetes Insufficiently Controlled with Insulin Glargine with or without Metformin; experiment: Body weight, 26-week study; assay type: in vivo, human
Source text: as §1, §2

[5] = system: Patients with Type 2 Diabetes Insufficiently Controlled with Insulin Glargine with or without Metformin; experiment: 2-h PPG post test meal, 26-week study; assay type: in vivo, human; settings: subset of mITT treated before breakfast
Description: as §2

[6] = system: Patients with Type 2 Diabetes Insufficiently Controlled with Insulin Glargine with or without Metformin; assay type: in vivo, human
[7] = system: Patients with Type 2 Diabetes Insufficiently Controlled with Insulin Glargine with or without Metformin; experiment: HbA1c, randomized open-label active-controlled 3-arm 26-week study (GetGoal-Duo2); assay type: in vivo, human
Source text: as §1, §2

[8] = Baseline (before IMP), mITT population
[9] = Week 26 (LOCF), mITT population
[10] = Week 26 (LOCF), mITT, Example 2 table

With “Insulin Glulisine QD: insulin glulisine once daily, added to insulin glargine ± metformin (comparator arm)” the “Fasting plasma glucose change to Week 26, LS Mean difference (SE) of Lixisenatide vs. the labelled insulin glulisine arm” value ([1]; ANCOVA, mITT population) was −0.01 (0.157) mmol/L, the “Fasting plasma glucose, Change from baseline to Week 26 (LOCF), LS Mean (SE)” value ([1]; ANCOVA, mITT population) was −0.21 (0.142) mmol/L and the “FPG, BL (end run-in) mean ± SD” value ([1]; BL (end run-in), mITT) was 123 ± 36 mg/dL. The “Fasting plasma glucose, Baseline, Mean (SD)” value [1, 8] was 6.85 (1.99) mmol/L, the “Fasting plasma glucose, Baseline, Median” value [1, 8] was 6.50 mmol/L and the “FPG, Screening (start run-in) mean ± SD” value ([1]; Screening (start run-in), mITT) was 167 ± 52 mg/dL. The “FPG, Week 26 (LOCF) mean ± SD” value ([1]; Week 26 (LOCF), mITT) was 120 ± 35 mg/dL, the “Fasting plasma glucose, Week 26 (LOCF), Mean (SD)” value [1, 9] was 6.66 (1.94) mmol/L and the “Fasting plasma glucose, Week 26 (LOCF), Median” value [1, 9] was 6.40 mmol/L. For the same substance, the “FPG, LS mean treatment difference (lixisenatide vs the labelled arm)” value ([1]; Week 26, mITT) was 0 mg/dL, the “FPG, LS mean ± SE change from BL” value ([1]; Week 26, mITT) was -4 ± 3 mg/dL and the “Fasting plasma glucose, Change from baseline to Week 26 (LOCF), Mean (SD)” value ([1]; mITT population) was −0.19 (2.52) mmol/L. For the same substance, the “Fasting plasma glucose, Change from baseline to Week 26 (LOCF), Median” value ([1]; mITT population) was -0.10 mmol/L, the “Any symptomatic hypoglycemia: Number of events” value [2] was 395 and the “Any symptomatic hypoglycemia: Number of events per 100 patient years” value [2] was 266.4 per 100 patient years. For the same substance, the “Any symptomatic hypoglycemia: Number of patients with events per 100 patient years” value [2] was 78.9 per 100 patient years, the “Documented Symptomatic Hypoglycemia at Week 26, % pts” value [2] was 37.5 (p = 0.144) % pts and the “Documented Symptomatic Hypoglycemia at Week 26, No. of events” value [2] was 384. For the same substance, the “Documented Symptomatic Hypoglycemia at Week 26, No. of events/pt years” value [2] was 2.6 events/pt years, the “Severe Hypoglycemia, no. of pts with events” value [2] was 2 and the “Insulin glargine dose change to Week 26, LS Mean difference (SE) of Lixisenatide vs. the labelled insulin glulisine arm” value ([3]; ANCOVA, mITT population) was 0.76 (1.104) U. The “Insulin glargine dose, Change from baseline to Week 26 (LOCF), LS Mean (SE)” value ([3]; ANCOVA, mITT population) was −0.06 (0.999) U, the “Insulin Glargine dose, BL (end run-in) mean ± SD” value ([3]; BL (end run-in), mITT) was 65 ± 32 U/day and the “Insulin glargine dose, Baseline, Mean (SD)” value [3, 8] was 64.79 (32.09) U. The “Insulin glargine dose, Baseline, Median” value [3, 8] was 58.00 U, the “Insulin Glargine dose, Screening (start run-in) mean ± SD” value ([3]; Screening (start run-in), mITT) was 40 ± 22 U/day and the “Insulin Glargine dose, Week 26 (LOCF) mean ± SD” value ([3]; Week 26 (LOCF), mITT) was 64 ± 36 U/day. For the same substance, the “Insulin glargine dose, Week 26 (LOCF), Mean (SD)” value [3, 9] was 63.89 (35.67) U, the “Insulin glargine dose, Week 26 (LOCF), Median” value [3, 9] was 54.00 U and the “Insulin Glargine dose, LS mean + SE change from BL” value ([3]; Week 26, mITT) was −0.1 ± 1.0 U/day. For the same substance, the “Insulin Glargine dose, LS mean treatment difference (lixisenatide vs the labelled arm)” value ([3]; Week 26, mITT) was 0.8 U/day, the “Insulin glargine dose, Change from baseline to Week 26 (LOCF), Mean (SD)” value ([3]; mITT population) was −0.91 (13.41) U and the “Insulin glargine dose, Change from baseline to Week 26 (LOCF), Median” value ([3]; mITT population) was −1.33 U. The “Body weight, Change from baseline to Week 26 (LOCF), LS Mean (SE)” value ([4]; ANCOVA, mITT population) was 1.03 (0.276) kg, the “Body weight change to Week 26, LS Mean difference (SE) of Lixisenatide vs. the labelled insulin glulisine arm” value ([4]; ANCOVA, mITT population, p <.0001) was −1.66 (0.305) kg and the “Body Weight, BL mean ± SD” value ([4]; BL, mITT, Example 2 table) was 88.4 ± 15.9 kg. For the same substance, the “Body weight, Baseline, Mean (SD)” value [4, 8] was 88.37 (15.88) kg, the “Body weight, Baseline, Median” value [4, 8] was 88.00 kg and the “Body weight, Week 26 (LOCF), Mean (SD)” value [4, 9] was 89.31 (16.27) kg. The “Body weight, Week 26 (LOCF), Median” value [4, 9] was 88.40 kg, the “Body Weight, Week 26 (LOCF) mean ± SD” value [4, 10] was 89.3 ± 16.3 kg and the “Body Weight, LS mean ± SE change from BL” value ([4]; Week 26, mITT, Example 2 table) was 1.0 ± 0.3 kg. For the same substance, the “Body Weight, LS mean treatment difference (lixisenatide vs the labelled arm)” value ([4]; Week 26, mITT, p < 0.0001, Example 2 table) was -1.7 kg, the “Body weight, Change from baseline to Week 26 (LOCF), Mean (SD)” value ([4]; mITT population) was 0.94 (2.50) kg and the “Body weight, Change from baseline to Week 26 (LOCF), Median” value ([4]; mITT population) was 0.90 kg. For the same substance, the “2-h PPG post test meal, BL (end run-in) mean ± SD” value ([5]; BL) was 249 ± 63 mg/dL, the “2-h PPG post test meal, Week 26 (LOCF) mean ± SD” value ([5]; Week 26 (LOCF)) was 220 ± 60 mg/dL and the “2-h PPG post test meal, LS mean treatment difference (lixisenatide vs the labelled arm)” value ([5]; Week 26) was -37 mg/dL. The “2-h PPG post test meal, LS mean ± SE change from BL” value ([5]; Week 26) was -28 ± 11 mg/dL, the “Reason for treatment discontinuation: Lack of efficacy” value ([6]; Randomized population, HbA1c above […] at Week 12 or later) was 4 (1.3%) n (%) and the “Reason for treatment discontinuation: Adverse event” value ([6]; human, in vivo) was 2 (0.7%) n (%). The “HbA1c change to Week 26, LS Mean difference (SE) of Lixisenatide vs. the labelled insulin glulisine arm” value ([7]; ANCOVA, mITT population) was −0.05 (0.059) %, the “HbA1c, Change from baseline to Week 26 (LOCF), LS Mean (SE)” value ([7]; ANCOVA, mITT population) was −0.58 (0.054) % and the “HbA1c, BL (end run-in) mean ± SD” value ([7]; BL (end run-in), mITT) was 7.7 ± 0.6%. The “HbA1c, Baseline, Mean (SD)” value [7, 8] was 7.72 (0.58) %, the “HbA1c, Baseline, Median” value [7, 8] was 7.70% and the “HbA1c, Screening (start run-in) mean ± SD” value ([7]; Screening (start run-in), mITT) was 8.5 ± 0.7%. The “HbA1c, Week 26 (LOCF), Mean (SD)” value [7, 9] was 7.21 (0.79) %, the “HbA1c, Week 26 (LOCF), Median” value [7, 9] was 7.10% and the “HbA1c, Week 26 (LOCF) mean ± SD” value [7, 10] was 7.2 ± 0.8%. For the same substance, the “HbA1c, LS mean treatment difference (lixisenatide vs the labelled arm), co-primary endpoint” value ([7]; Week 26, mITT, Example 2 table) was −0.1^† %, the “HbA1c, LS mean ± SE change from BL” value ([7]; Week 26, mITT, Example 2 table) was −0.6 ± 0.1% and the “HbA1c, Change from baseline to Week 26 (LOCF), Mean (SD)” value ([7]; mITT population) was −0.51 (0.80) %. The “HbA1c, Change from baseline to Week 26 (LOCF), Median” value ([7]; mITT population) was −0.50%.
